Test results from patent US20230085307A1, “PYRIDAZINONE COMPOUND AND HERBICIDE” (NISSAN CHEMICAL CORPORATION, priority 2019, published 2023).

Tests used:
late watergrass = test: Test Example 2: herbicidal activity, application during weed generation under submerged conditions (Table 17, symbol A); format: in vivo, late watergrass (Echinochloa oryzicola); details: AAH 320 g/ha; application during weed generation, submerged conditions
Outline: (§1)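 Effect on each weed is rated three weeks post-treatment, using the same scoring criteria as the preceding test. Plants grow from mixed-sown seed in flooded alluvial soil (4 cm water) at 25° C. to 30° C., and are treated at one to two leaves with diluted emulsion dropped onto the water.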

southern crabgrass = test: Test Example 4: herbicidal effect by soil treatment (Table 19, symbol F); format: in vivo, southern crabgrass (Digitaria ciliaris); details: amount of applied herbicide 320 g/ha
Outline: (§2)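 Scoring uses the grading scale of an earlier test, three weeks post-application. Treatment consists of spraying a diluted emulsion formulation across the surface of sterilized diluvial soil in which seeds are buried near 1.5 cm deep; boxes are kept in a greenhouse between 25° C. and 30° C.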

wild oat = test: Test Example 4: herbicidal effect by soil treatment (Table 19, symbol I); format: in vivo, wild oat (Avena fatua); details: amount of applied herbicide 320 g/ha
Outline: as §2

green foxtail [1] = test: Test Example 4: herbicidal effect by soil treatment (Table 19, symbol G); format: in vivo, green foxtail (Setaria viridis); details: amount of applied herbicide 320 g/ha
Outline: as §2

false cleavers [2] = test: Test Example 5: herbicidal effect by foliage application, plastic box (Table 20, symbol Q); format: in vivo, false cleavers (Galium spurium); details: foliage application, 320 g/ha, three weeks after application
Outline: (§3)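 Post-emergence foliar test in sterilized diluvial soil. Compound applied as water-diluted emulsion at a predetermined rate to 14-day-old plants; evaluation at three weeks.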

barnyard grass = test: Test Example 4: herbicidal effect by soil treatment (Table 19, symbol H); format: in vivo, barnyard grass (Echinochloa crus-galli); details: amount of applied herbicide 320 g/ha
Outline: as §2

Japanese bulrush = test: Test Example 2: herbicidal activity, application during weed generation under submerged conditions (Table 17, symbol B); format: in vivo, Japanese bulrush (Schoenoplectus juncoides); details: AAH 320 g/ha; application during weed generation, submerged conditions
Outline: as §1

false cleavers [3] = test: Test Example 4: herbicidal effect by soil treatment (Table 19, symbol Q); format: in vivo, false cleavers (Galium spurium); details: amount of applied herbicide 320 g/ha
Outline: as §2

green foxtail [4] = test: Test Example 5: herbicidal effect by foliage application, plastic box (Table 20, symbol G); format: in vivo, green foxtail (Setaria viridis); details: foliage application; for G: green foxtail, herbicidal effect (criteria 0-5): AAH 320 g/ha
Outline: as §3

persian speedwell = test: Test Example 5: herbicidal effect by foliage application, plastic box (Table 20, symbol R); format: in vivo, Persian speedwell (Veronica persica); details: foliage application; for R: persian speedwell, herbicidal effect (criteria 0-5): AAH 320 g/ha
Outline: as §3

velvetleaf = test: Test Example 4: herbicidal effect by soil treatment (Table 19, symbol M); format: in vivo, velvetleaf (Abutilon theophrasti); details: amount of applied herbicide 320 g/ha
Outline: as §2

lambsquarters = test: Test Example 5: herbicidal effect by foliage application, plastic box (Table 20, symbol O); format: in vivo, lambsquarters (Chenopodium album); details: foliage application; for O: lambsquarters, herbicidal effect (criteria 0-5): AAH 320 g/ha
Outline: as §3

blackgrass = test: Test Example 4: herbicidal effect by soil treatment (Table 19, symbol J); format: in vivo, blackgrass (Alopecurus myosuroides); details: amount of applied herbicide 320 g/ha
Outline: as §2

redroot pigweed = test: Test Example 4: herbicidal effect by soil treatment (Table 19, symbol N); format: in vivo, redroot pigweed (Amaranthus retroflexus); details: amount of applied herbicide 320 g/ha
Outline: as §2

Italian ryegrass = test: Test Example 5: herbicidal effect by foliage application, plastic box (Table 20, symbol K); format: in vivo, Italian ryegrass (Lolium multiflorum); details: foliage application; for K: Italian ryegrass, herbicidal effect (criteria 0-5): AAH 320 g/ha
Outline: as §3

oval-leafed pondweed = test: Test Example 2: herbicidal activity, application during weed generation under submerged conditions (Table 17, symbol C); format: in vivo, oval-leafed pondweed (Monochoria vaginalis); details: AAH 320 g/ha; application during weed generation, submerged conditions
Outline: as §1

[5] = 320 g/ha, three weeks after application
[6] = 320 g/ha, evaluated three weeks after application
[7] = evaluated three weeks after application

Row | Compound | herbicidal effect rating, A: late watergrass (late watergrass) | herbicidal effect rating, B: Japanese bulrush (Japanese bulrush) | herbicidal effect rating, C: oval-leafed pondweed (oval-leafed pondweed) | herbicidal effect on F: southern crabgrass (southern crabgrass) | herbicidal effect on I: wild oat (wild oat) | herbicidal effect on G: green foxtail (green foxtail [1]) | herbicidal effect on H: barnyard grass (barnyard grass) | herbicidal effect on Q: false cleavers (false cleavers [3]) | G: green foxtail, herbicidal effect (criteria 0-5) (green foxtail [4]; [7]) | R: persian speedwell, herbicidal effect (criteria 0-5) (persian speedwell; [7]) | herbicidal effect on M: velvetleaf (velvetleaf) | O: lambsquarters, herbicidal effect (criteria 0-5) (lambsquarters; [7]) | herbicidal effect on J: blackgrass (blackgrass) | herbicidal effect on N: redroot pigweed (redroot pigweed) | K: Italian ryegrass, herbicidal effect (criteria 0-5) (Italian ryegrass; [7]) | also measured
1 | CCCCCOc1ccc(-c2sc3ccccc3c2-c2c(O)c(C)nn(C)c2=O)cc1 [1-026] | 2 (Herbicidal rate of 20% or more and less than 40%) | 3 (Herbicidal rate of 40% or more and less than 70%) |  |  |  |  |  |  |  |  |  |  |  |  |  | herbicidal effect rating, F: southern crabgrass (southern crabgrass): 0 (Herbicidal rate of 5% or less (almost no effect)); herbicidal effect rating, I: wild oat (wild oat): 0 (Herbicidal rate of 5% or less (almost no effect)); herbicidal effect rating, G: green foxtail (green foxtail [1]): 0 (Herbicidal rate of 5% or less (almost no effect)); herbicidal effect grade, Q: false cleavers (false cleavers [2]): 4 (Herbicidal rate of 70% or more and less than 90%); herbicidal effect rating, H: barnyard grass (barnyard grass): 0 (Herbicidal rate of 5% or less (almost no effect)); herbicidal effect rating, Q: false cleavers (false cleavers [3]): 0 (Herbicidal rate of 5% or less (almost no effect)); herbicidal effect grade, G: green foxtail (green foxtail [4]; [5]): 5 (Herbicidal rate of 90% or more (almost completely withered)); herbicidal effect grade, R: persian speedwell (persian speedwell; [5]): 5 (Herbicidal rate of 90% or more (almost completely withered)); herbicidal effect rating, M: velvetleaf (velvetleaf): 0 (Herbicidal rate of 5% or less (almost no effect)); herbicidal effect grade, O: lambsquarters (lambsquarters; [5]): 0 (Herbicidal rate of 5% or less (almost no effect)); herbicidal effect rating, J: blackgrass (blackgrass): 0 (Herbicidal rate of 5% or less (almost no effect)); herbicidal effect rating, N: redroot pigweed (redroot pigweed): 5 (Herbicidal rate of 90% or more (almost completely withered)); herbicidal effect grade, K: Italian ryegrass (Italian ryegrass; [5]): 2 (Herbicidal rate of 20% or more and less than 40%)
2 | Cc1nn(C)c(=O)c(-c2c(-c3ccc(Br)cc3)sc3ccc(F)cc23)c1O [2-205] | 2 (Herbicidal rate of 20% or more and less than 40%) | 3 (Herbicidal rate of 40% or more and less than 70%) | 2 (Herbicidal rate of 20% or more and less than 40%) |  |  |  |  |  |  |  |  |  |  |  |  | F: southern crabgrass, herbicidal effect rating (southern crabgrass): 5 (Herbicidal rate of 90% or more (almost completely withered)); I: wild oat, herbicidal effect rating (wild oat): 1 (Herbicidal rate of 5% or more and less than 20%); G: green foxtail, herbicidal effect rating (green foxtail [1]): 5 (Herbicidal rate of 90% or more (almost completely withered)); H: barnyard grass, herbicidal effect rating (barnyard grass): 4 (Herbicidal rate of 70% or more and less than 90%); Q: false cleavers, herbicidal effect rating (false cleavers [3]): 1 (Herbicidal rate of 5% or more and less than 20%); herbicidal effect on G: green foxtail (criteria 0-5) (green foxtail [4]; [6]): 5 (Herbicidal rate of 90% or more (almost completely withered)); herbicidal effect on R: persian speedwell (criteria 0-5) (persian speedwell; [6]): 5 (Herbicidal rate of 90% or more (almost completely withered)); M: velvetleaf, herbicidal effect rating (velvetleaf): 2 (Herbicidal rate of 20% or more and less than 40%); herbicidal effect on O: lambsquarters (criteria 0-5) (lambsquarters; [6]): 5 (Herbicidal rate of 90% or more (almost completely withered)); J: blackgrass, herbicidal effect rating (blackgrass): 0 (Herbicidal rate of 5% or less (almost no effect)); N: redroot pigweed, herbicidal effect rating (redroot pigweed): 5 (Herbicidal rate of 90% or more (almost completely withered)); herbicidal effect on K: Italian ryegrass (criteria 0-5) (Italian ryegrass; [6]): 5 (Herbicidal rate of 90% or more (almost completely withered))
3 | Cc1nn(C)c(=O)c(-c2c(-c3ccc(OC(F)F)cc3)sc3ccc(F)cc23)c1OC(=S)Sc1ccccc1 [2-298] | 3 (Herbicidal rate of 40% or more and less than 70%) | 3 (Herbicidal rate of 40% or more and less than 70%) | 0 (Herbicidal rate of 5% or less (almost no effect)) | 0 (Herbicidal rate of 5% or less (almost no effect)) | 0 (Herbicidal rate of 5% or less (almost no effect)) | 0 (Herbicidal rate of 5% or less (almost no effect)) | 0 (Herbicidal rate of 5% or less (almost no effect)) | 0 (Herbicidal rate of 5% or less (almost no effect)) | 5 (Herbicidal rate of 90% or more (almost completely withered)) | 5 (Herbicidal rate of 90% or more (almost completely withered)) | 2 (Herbicidal rate of 20% or more and less than 40%) | 5 (Herbicidal rate of 90% or more (almost completely withered)) | 0 (Herbicidal rate of 5% or less (almost no effect)) | 3 (Herbicidal rate of 40% or more and less than 70%) | 5 (Herbicidal rate of 90% or more (almost completely withered)) | 
4 | Cc1nn(C)c(=O)c(-c2c(-c3ccc(O)cc3)sc3ccc(F)cc23)c1O [2-337] | 0 (Herbicidal rate of 5% or less (almost no effect)) | 2 (Herbicidal rate of 20% or more and less than 40%) | 0 (Herbicidal rate of 5% or less (almost no effect)) | 0 (Herbicidal rate of 5% or less (almost no effect)) | 0 (Herbicidal rate of 5% or less (almost no effect)) | 0 (Herbicidal rate of 5% or less (almost no effect)) | 0 (Herbicidal rate of 5% or less (almost no effect)) | 0 (Herbicidal rate of 5% or less (almost no effect)) | 0 (Herbicidal rate of 5% or less (almost no effect)) | 5 (Herbicidal rate of 90% or more (almost completely withered)) | 0 (Herbicidal rate of 5% or less (almost no effect)) | 3 (Herbicidal rate of 40% or more and less than 70%) | 0 (Herbicidal rate of 5% or less (almost no effect)) | 0 (Herbicidal rate of 5% or less (almost no effect)) | 0 (Herbicidal rate of 5% or less (almost no effect)) | 
5 | Cc1nn(C)c(=O)c(-c2c(-c3ccc([N+](=O)[O-])cc3)sc3ccc(F)cc23)c1O [2-341] | 3 (Herbicidal rate of 40% or more and less than 70%) | 3 (Herbicidal rate of 40% or more and less than 70%) | 3 (Herbicidal rate of 40% or more and less than 70%) | 5 (Herbicidal rate of 90% or more (almost completely withered)) | 3 (Herbicidal rate of 40% or more and less than 70%) | 4 (Herbicidal rate of 70% or more and less than 90%) | 3 (Herbicidal rate of 40% or more and less than 70%) | 0 (Herbicidal rate of 5% or less (almost no effect)) | 5 (Herbicidal rate of 90% or more (almost completely withered)) | 5 (Herbicidal rate of 90% or more (almost completely withered)) | 3 (Herbicidal rate of 40% or more and less than 70%) | 5 (Herbicidal rate of 90% or more (almost completely withered)) | 0 (Herbicidal rate of 5% or less (almost no effect)) | 5 (Herbicidal rate of 90% or more (almost completely withered)) | 5 (Herbicidal rate of 90% or more (almost completely withered)) | 
